The results in this text go back to ChEMBL document CHEMBL1122930, “Synthesis and pharmacological characterization of 5-(2-dodecylphenyl)-4,6-dithianonanedioic acid and 5-[2-(8-phenyloctyl)phenyl]-4,6-dithianonanedioic acid: prototypes of a novel class of leukotriene antagonists” (J Med Chem, 1985).

The target in experiment [1] is T1, Cysteinyl leukotriene receptor 1 (Cavia porcellus, UniProt Q2NNR5).
T1 sequence (Q2NNR5 whole entry): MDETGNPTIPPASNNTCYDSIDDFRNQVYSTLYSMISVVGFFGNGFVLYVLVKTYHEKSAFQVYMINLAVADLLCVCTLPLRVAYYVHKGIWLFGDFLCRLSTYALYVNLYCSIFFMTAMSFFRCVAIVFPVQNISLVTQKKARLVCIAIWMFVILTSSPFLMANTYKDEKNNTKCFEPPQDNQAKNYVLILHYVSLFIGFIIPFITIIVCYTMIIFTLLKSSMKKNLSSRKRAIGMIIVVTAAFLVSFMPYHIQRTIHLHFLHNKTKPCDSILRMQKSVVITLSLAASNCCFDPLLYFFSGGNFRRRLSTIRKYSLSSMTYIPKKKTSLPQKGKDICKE
Kind of experiment: Binding constant was determined as affinity to displace [3H]LTD4 from Cysteinyl leukotriene D4 receptor on guinea pig lung membrane. Type of experiment: tissue-based.

The subject of experiment [2] is Cavia porcellus. Kind of experiment: Antagonistic effect on LTD4 induced change in lung compliance (CDYN) in anesthetized guinea pigs, at dose 5 ug/kg, administered intravenously. In kind it is functional. As to conditions: iv.
The subject of experiment [3] is Cavia porcellus. Kind of experiment: Antagonistic effect on LTD4 induced change in air way resistance (RL) in anesthetized guinea pigs, at dose 5 ug/kg, administered intravenously. In kind it is functional. As to conditions: iv.
In experiment [4] the target is T2, Cysteinyl leukotriene receptor 1 (Cavia porcellus) (UniProt Q2NNR5).
T2 sequence (whole entry): T1 sequence (Q2NNR5 whole entry)

The target of experiment [5] is T2, Cysteinyl leukotriene receptor 1 (Cavia porcellus). Kind of experiment: Dissociation constant towards Cysteinyl leukotriene D4 receptor of guinea pig.
Experiment [6] concerns Cavia porcellus. The experiment is described as follows: Antagonistic effect on LTD4 induced change in lung compliance (CDYN) in anesthetized guinea pig, at dose 5 ug/kg, administered intravenously. In kind it is functional. To be noted: iv.
Experiment [7] deals with Cavia porcellus. The experiment is described as follows: Antagonistic effect on LTD4 induced changes in dynamic lung compliance (CDYN) in anesthetized guinea pigs, at dose 5 mg/kg when administered intravenously. Type of experiment: functional. As to conditions: route intravenous.
The subject of experiment [8] is Cavia porcellus. The experiment is described as follows: Antagonistic effect on LTD4 induced change in airway resistance (RL) in anesthetized guinea pigs, at dose 5 mg/kg when administered intravenously. Type of experiment: functional. To be noted: route intravenous.
Experiment [9] deals with T2, Cysteinyl leukotriene receptor 1 (Cavia porcellus). This is another data set of the same source.

Where a name gives a salt, the structure may show the parent alone.

Turning to `O=C(O)CCSC(SCCC(=O)O)c1ccccc1CCCCCCCCc1ccccc1`, the affinity in experiment [1], expressed as Ki, was 245 nM. In addition, the inhibition in vivo at 0.005 mg/kg in the experiment with Cavia porcellus [2] was determined as 95%; in the experiment on Cavia porcellus [3], 100%. The compound also gave a -Log K B in experiment [4] of 6.7.

For `CCCCCCCCCCCCc1ccccc1C(SCCC(=O)O)SCCC(=O)O`, in experiment [1], the Ki was 445 nM. The compound also registered a -Log K B in experiment [5] of 6. Also, the inhibition in vivo at 0.005 mg/kg in the experiment with Cavia porcellus [6] turned out to be 83%; with Cavia porcellus [3], 97%.

`CCCc1c(OCC(O)COc2ccc3c(=O)cc(C(=O)O)oc3c2CCC)ccc(C(C)=O)c1O` (stereo unspecified) [FPL-55712 SODIUM SALT]: the inhibition in vivo at 5 mg/kg in the experiment on Cavia porcellus [7] and with Cavia porcellus [8] was 97% in each case. In experiment [9], this compound yielded a -Log K B of 6.8.

What is called Ki is a measure of affinity in units of concentration, obtained from inhibition or displacement. Higher therefore signals a looser hold on the target. As a reminder, the inhibition in vivo is how much of the control response was suppressed.
